{"source": "patent US20250382588A1", "about": "“CHIMERIC AAV AND USES THEREOF” (priority 2023, published 2025)", "format_in_all_cases": "in vivo", "key": {"[1]": {"tested_on": "hM3Dq or rM3Ds", "assay": "Locomotion test after nigral DREADD AAV and CNO in macaques", "protocol": "To guide the virus injection in SNr, a guide grid of multiple holes spaced by 1 mm was installed on each subject vertically above the SN. By filling vitamin E in these holes, the accurate coordinates for injection could be obtained from the T1-weighted MRI images (3T Tim Trio scanner, Siemens). Virus injections were performed in nine sites covering the whole SNr, and a total volume of 27 μL virus was unilaterally injected in the right SNr at the speed of 300 nL/min.\nTo intracranially administrate drug and/or perform electrophysiological recording, a recording chamber covering from anterior caudate to posterior GPi was fixed on the skull with 6 titanium screws and dental cement. Each subject was allowed to recover from the surgery for at least 6 weeks prior to further studies.\nThe locomotion tests for monkeys were conducted in a custom-made observation cage (100 cm×100 cm×100 cm). The top and front of the cage were made of toughened glass in order to gain a clear view for behavioral recording. Monkeys were habituated to the observation cage by placing them inside for 30 minutes on three separate days.\nFor monkeys injected with AAV8R12-G88P3-HA-hM3Dq, CNO was intracranially infused into the dorsomedial caudate through the recording chamber. To infuse while the animal was awake, the monkey was trained to sit in a primate chair specially designed with its head fixed to the primate chair by a mask made of thermoplastic materials. Injections were conducted through a 33-Gauge needle connected to a 250 μL syringe via a polyethylene pipe (Hamilton, Neuros). […] The needle was held for 5 minutes for drug diffusion before retraction. […] Videos capturing the subjects' behavior were recorded for at least 90 minutes. Animal behaviors from 30-90 minutes after saline/CNO infusion were further analyzed and quantified.\nFor rotation analysis, only movements that occurred lower than 30 cm on the z-axis were counted. To determine the direction of the rotation, we first computed the center for the rotation data in the x-y plane as (x0, y0) by averaging all data points, and then we computed the angle relative to (x0, y0) for each time point by the following formula:\nwhere θi represents the rotating angle at time i, and (xi, yi) represents the x-y coordinate at time i. We then calculated the change of rotating angle as Δθi=θi−θi-1. For right nigral injections, when Δθ<0, the direction of the rotation was anticlockwise and was labeled as a contraversive rotation. When Δθ>0, the direction of the rotation was clockwise and was labeled as an ipsiversive rotation. The raw data were analyzed and plotted through a custom R package. Code is available on Github (github.com/chenyef/PD_ana/blob/main/Behavior_ana.txt)."}, "[2]": {"molecular_target": "T1, rM3Ds (Rattus norvegicus, UniProt P08483, A177S/A238G/A489L/DEL261-437/DEL441-478/E258S/I253V/I483M/INS256[…]/K178L/K182A/K255R/K484R/K486H/L173F/L482A/M480V/R171S/R176Q/R179M/S481M/T174R/T181R/T257A/Y148C)", "T1 sequence (P08483 with tags, fused parts or gaps Y148C/R171S/L173F/T174R/R176Q/A177S/K178L/R179M/T181R/K182A/A238G/I253V/K255R/INS256[…]/T257A/E258S/DEL261-437/DEL441-478/M480V/S481M/L482A/I483M/K484R/K486H/A489L)": "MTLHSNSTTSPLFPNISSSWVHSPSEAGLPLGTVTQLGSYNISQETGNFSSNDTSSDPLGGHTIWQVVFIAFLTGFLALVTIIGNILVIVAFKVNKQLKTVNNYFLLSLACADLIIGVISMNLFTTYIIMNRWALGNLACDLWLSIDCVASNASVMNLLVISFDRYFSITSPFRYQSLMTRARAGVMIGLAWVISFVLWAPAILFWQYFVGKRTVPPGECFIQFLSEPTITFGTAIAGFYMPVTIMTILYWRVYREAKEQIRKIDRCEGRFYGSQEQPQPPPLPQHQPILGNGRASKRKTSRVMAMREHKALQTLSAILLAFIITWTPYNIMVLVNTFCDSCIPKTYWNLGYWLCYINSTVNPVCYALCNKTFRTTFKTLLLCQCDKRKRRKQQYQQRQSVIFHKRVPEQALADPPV", "assay": "Electrophysiological recording in caudate/putamen after intramuscular CNO, rM3Ds macaques", "protocol": "(§1) Electrophysiological recording was performed through a recording chamber while the monkey was anesthetized. Neural responses were recorded by a 16-channel linear probe (Plexon Inc, Uprobe) driven by a mechanical microdrive (Alpha Omega, FlexMT). Signals were passed through a head stage (Plexon Inc, HST/16V-G20 LN) and then split and filtered between 300 Hz and 5 kHz to identify spiking activity with an amplifier system (Plexon Inc, OmniPlex). Detected spikes were then sorted by commercially available software (Plexon Inc, Offline Sorter) for further analysis. To quantify the effect of CNO/DCZ injection, neural activity was recorded for 60 minutes following CNO/DCZ injection. The response time-course for each channel was obtained by counting the spikes within every 10-minute window and then normalizing to the maximal.\nTo determine the effect of CNO/DCZ injection on the direction of signal change, we performed Pearson correlation between neural responses and time using the ‘corr’ function in Matlab, which generates the correlation coefficient ‘r’ and significant level ‘p’. A neuron was considered to have “Increased” activity when r>0 and p<[…]; and considered to have “Decreased” activity when r<0 and p<0.05. Otherwise, neurons were considered to be “Unchanged” in their neural activities. The responses of all increased neurons were then averaged after being normalized by the maximal response (Crowe et al., 2014; Dai and Wang, 2018; Hirokawa et al., 2019) following CNO/DCZ injection, and then plotted as a function of time to generate the normalized population response. […]"}, "[3]": {"molecular_target": "T1, rM3Ds", "assay": "Electrophysiological recording in caudate/putamen of MPP+ lesioned macaques after CNO or DCZ", "protocol": "Intriguingly, many of the symptoms were greatly reversed after systemic deschloroclozapine (DCZ) administration. DCZ is a potent brain-penetrable agonist for rM3Ds with reduced off-targeting binding compared to CNO, and was administered to activate the DREADD system in the macaque brain.\nas §1\nTo determine the effect of CNO/DCZ injection on the direction of signal change, we performed Pearson correlation between neural responses and time using the ‘corr’ function in Matlab, which generates the correlation coefficient ‘r’ and significant level ‘p’. A neuron was considered to have “Increased” activity when r>0 and p<[…]; and considered to have “Decreased” activity when r<0 and p<0.05. Otherwise, neurons were considered to be “Unchanged” in their neural activities. The responses of all increased neurons were then averaged after being normalized by the maximal response (Crowe et al., 2014; Dai and Wang, 2018; Hirokawa et al., 2019) following CNO/DCZ injection, and then plotted as a function of time to generate the normalized population response."}, "[4]": {"conditions": "intracranial or systemic CNO, n=4"}, "[5]": {"conditions": "38 total cells in the caudate/putamen"}, "[6]": {"conditions": "monkey CM048, 38 cells in caudate"}, "[7]": {"conditions": "caudate/putamen, CNO 36 cells, DCZ 31 cells"}}, "data": [{"smiles": "C[N+]1([O-])CCN(C2=Nc3cc(Cl)ccc3Nc3ccccc32)CC1", "note": "[CNO, clozapine N-oxide]", "values": [{"measurement": "muscle tone of the contralateral biceps brachii (electromyogram)", "setting": "[1]; following CNO infusions", "value": "an increase in the muscle tone"}, {"measurement": "immobile time (FIG. 10E)", "setting": "[1]; [4]", "value": "89.13±8.379"}, {"measurement": "speed during contraversive rotations (FIG. 10G)", "setting": "[1]; [4]", "value": "46.98±6.669"}, {"measurement": "total distance (FIG. 10F)", "setting": "[1]; [4]", "value": "97.37±19.41"}, {"measurement": "velocity of ipsiversive rotations (FIG. 10H)", "setting": "[1]; [4]", "value": "41.37±6.566"}, {"measurement": "cells activated (FIG. 12N)", "setting": "[2]; [5]", "value": 50, "unit": "%"}, {"measurement": "cells inactivated (FIG. 12N)", "setting": "[2]; [5]", "value": 13.2, "unit": "%"}, {"measurement": "cells unchanged (FIG. 12N)", "setting": "[2]; [5]", "value": 36.8, "unit": "%"}, {"measurement": "neuronal activity in retrogradely labeled D1-MSNs (opto-tagging)", "setting": "[2]; anesthetized macaques, AAV8R12-G88P7-HA-rM3Ds-2A-Cre", "value": "effectively induced an increase of neuronal activity"}, {"measurement": "cells activated (FIG. 12F)", "setting": "[2]; [6]", "value": 65.8, "unit": "%"}, {"measurement": "cells inactivated (FIG. 12F)", "setting": "[2]; [6]", "value": 7.9, "unit": "%"}, {"measurement": "cells unchanged (FIG. 12F)", "setting": "[2]; [6]", "value": 26.3, "unit": "%"}, {"measurement": "neuronal activity in MPP+ lesioned macaques, in words", "setting": "[3]; anesthetized animals", "value": "induced an increase in neuronal activity"}, {"measurement": "cells activated (FIG. 15G)", "setting": "[3]; [7]", "value": 52.8, "unit": "%"}, {"measurement": "cells inactivated (FIG. 15G)", "setting": "[3]; [7]", "value": 13.9, "unit": "%"}, {"measurement": "cells unchanged (FIG. 15G)", "setting": "[3]; [7]", "value": 33.3, "unit": "%"}]}]}
